In patent US20130065226A1, “METHOD OF DETERMINING DOSE AND ADMINISTRATION OF STATIN” (TOHOKU UNIVERSITY, priority 2011, published 2013):
Where two headings read alike, the source gives them in different places.

Experiments:
[1] = Body weight, blood pressure and plasma lipid profiles in AngII-infused mice; format: in vivo; conditions: 2 weeks, ATOR 10 mpk, PRA 50 mpk; for Systolic blood pressure: mean ± s.e.m.; for HDL cholesterol / LDL-cholesterol / Total cholesterol / Triglyceride: plasma
Experimental: An AngII-induced cardiovascular hypertrophy model in mice was produced according to Yagi et al.'s literature (Yagi, S. et al., Circ. Res. 102, 68-76 (2008)). Statins were administered to mice by gavage every day for 2 weeks. After 2 weeks of sustained AngII administration by means of osmotic pump, the present inventors observed the left ventricular function and measured the weight of the heart of each mouse by means of an ultrasound imaging system. […] After a 2 weeks washout period, the subjects were switched to take an alternative medicine for additional 2 weeks.
The present inventors conducted all mouse experiments in accordance with experimental protocols that were approved by the Animal Care and Use Committee of the Tohoku University Graduate School of Medicine. The present inventors used an AngII-induced cardiovascular hypertrophy model (see Yagi, S . et al . , Circ. Res. 102. 68-76 (2008)) to assess the effect of SmgGDS deficiency on the pleiotropic effects of low-dose statins. The present inventors infused 2.0 mg kg^−1 day^−1 or saline for 2 weeks in 10-week-old male SmgGDS^+/+ littermate control mice and SmgGDS^+/− mice. The inventors dissolved AngII in sterile saline and infused it via osmotic mini-pumps (Alzet model 2002, Alze Corp.). The inventors anesthetized the animals with isofluorane. Then, the inventors prepared subcutaneous pockets in the isofluorane-anesthetized mice and placed the pumps into the subcutaneous pockets through a small incision in the back that was closed by suturing. Either statin or vehicle was administered to both the AngII-infused and saline-infused mouse by gavage every day for 2 weeks . All incision sites rapidly healed without any infection. Systolic blood pressure was measured by using a non-invasive tail-cuff system (MK-2000, Muromachi) 2 weeks after the pump implantation. Plasma lipids (triglycerides, total cholesterol, LDL-cholesterol and HDL-cholesterol) were analyzed with the high-performance liquid chromatography system of Skylight Biotech. Echocardiographic analysis was performed by using an ultrasound imaging system (Vevo 2100, VisualSonic Inc.). The mice were shaved and M-mode images of the left ventricle were recorded while the heart rate was kept at about 500 bpm.

[2] = Plasma concentration of statins in mice; format: in vivo; conditions: male, mouse, oral, 24 hours after last of 2-week gavage, atorvastatin 10 mg/kg/day, pravastatin 50 mg/kg/day, read-out: Plasma concentration of statin
Experimental: Furthermore, the present inventors administrated each statin by gavage for 2 weeks from the start of AngII administration ([…], 10 mg/kg/day or pravastatin, 50 mg/kg/day) to the each group of mouse. The present inventors measured plasma concentration of statins 24 hours after the last administration (Table 3).

[3] = system: SmgGDS; assay: Human study: SmgGDS expression in circulating leukocytes (western blot); format: in vivo; conditions: healthy volunteers, 20 mg, 2 weeks, vs before administration
Text: (§1) The exclusion criteria included abnormal liver or kidney dysfunction before and during the statin administration and treatment.

[4] = Human study: plasma lipid profiles, glucose, insulin and HOMA-IR; format: in vivo; conditions: healthy volunteers
Text: as §1

[5] = system: SmgGDS; assay: SmgGDS expression in HUVEC after 24 h drug treatment (western blot); format: cell-based, human; conditions: for SmgGDS expression level in HUVEC: 24 h treatment, atorvastatin 10 and 30 μM, pitavastatin 1 and 10 μM
[6] = 20 mg day^−1, after 2 weeks vs baseline
[7] = fasting, 20 mg day^−1 oral, 2 weeks

**Q.** With `CC[C@H](C)C(=O)O[C@H]1C[C@H](O)C=C2C=C[C@H](C)[C@H](CC[C@@H](O)C[C@@H](O)CC(=O)O)[C@H]21` [pravastatin] as the molecule, how does the Systolic blood pressure ([1]; AngII-infused SmgGDS+/+ mice) read?
**A.** 141.0 ± 7.3 mmHg

**Q.** What about the Systolic blood pressure ([1]; AngII-infused SmgGDS+/− mice) of the same molecule?
**A.** 146.7 ± 6.6 mmHg

**Q.** And the HDL cholesterol ([1]; AngII-infused SmgGDS+/+ mice)?
**A.** 88.0 ± 4.5 mg/dL

**Q.** What about the LDL-cholesterol ([1]; AngII-infused SmgGDS+/+ mice) of the same molecule?
**A.** 16.1 ± 2.3 mg/dL

**Q.** What about the Total cholesterol ([1]; AngII-infused SmgGDS+/+ mice) of the same molecule?
**A.** 111.2 ± 6.8 mg/dL

**Q.** And the Triglyceride ([1]; AngII-infused SmgGDS+/+ mice)?
**A.** 47.3 ± 10.9 mg/dL

**Q.** What about the HDL cholesterol ([1]; AngII-infused SmgGDS+/− mice) of the same molecule?
**A.** 94.0 ± 4.1 mg/dL

**Q.** And the LDL-cholesterol ([1]; AngII-infused SmgGDS+/− mice)?
**A.** 16.1 ± 1.6 mg/dL

**Q.** And the Total cholesterol ([1]; AngII-infused SmgGDS+/− mice)?
**A.** 116.7 ± 5.7 mg/dL

**Q.** What about the Triglyceride ([1]; AngII-infused SmgGDS+/− mice) of the same molecule?
**A.** 56.6 ± 7.3 mg/dL

**Q.** What about the concentration at 24 h ([2]; AngII-infused SmgGDS+/+ mice) of the same molecule?
**A.** 0.43 ± 0.08 ng/mL

**Q.** What about the concentration at 24 h ([2]; AngII-infused SmgGDS+/− mice) of the same molecule?
**A.** 0.64 ± 0.24 ng/mL

**Q.** And the “increase of SmgGDS in leukocytes, average of the 20 volunteers” value [3]?
**A.** about 1.4 times

**Q.** And the “HDL-cholesterol, Change (%)” value [4, 6]?
**A.** 5%

**Q.** And the “LDL-cholesterol, Change (%)” value [4, 6]?
**A.** −24%

**Q.** What about the “MDA-LDL, Change (%)” value [4, 6] of the same molecule?
**A.** −25%

**Q.** What about the “RLP cholesterol, Change (%)” value [4, 6] of the same molecule?
**A.** −22%

**Q.** What about the “Total cholesterol, Change (%)” value [4, 6] of the same molecule?
**A.** −14%

**Q.** And the “Triglyceride, Change (%)” value [4, 6]?
**A.** −16%

**Q.** What about the “HDL-cholesterol, After 2 weeks” value [4, 7] of the same molecule?
**A.** 61 ± 2.8 mg/dL

**Q.** And the “LDL-cholesterol, After 2 weeks” value [4, 7]?
**A.** 88 ± 4.0 mg/dL

**Q.** And the “MDA-LDL, After 2 weeks” value [4, 7]?
**A.** 85 ± 6.7 U l^−1

**Q.** And the “RLP cholesterol, After 2 weeks” value [4, 7]?
**A.** 3.2 ± 0.3 mg/dL

**Q.** What about the “Triglyceride, After 2 weeks” value [4, 7] of the same molecule?
**A.** 87 ± 9.1 mg/dL

**Q.** What about the “Total cholesterol, After 2 weeks” value ([4]; fasting, 20 mg day^−1 oral, 2 weeks, mean ± s.e.m., n = 20) of the same molecule?
**A.** 165 ± 4.5 mg/dL

**Q.** For `Cn1cc(C2=C(c3ccc(Cl)cc3Cl)C(=O)NC2=O)c2ccccc21` [SB216763], which “SmgGDS expression level in HUVEC” value [5] is on record?
**A.** increased the SmgGDS expression level in a concentration-dependent manner

**Q.** For `O=c1[nH]ccc2c(S(=O)(=O)N3CCCNCC3)cccc12` [HF, hydroxyfasudil], which “SmgGDS expression level in HUVEC” value [5] is on record?
**A.** did not increase the SmgGDS expression level

**Q.** Which “inhibition of the statin-induced increase in SmgGDS expression level” value ([5]; FPP or GGPP 10 μM co-treated with atorvastatin or pitavastatin, 24 h) does the source give for `CC(C)=CCC/C(C)=C/CC/C(C)=C/COP(=O)(O)OP(=O)(O)O` [FPP, farnesyl pyrophosphate] here?
**A.** neither FPP nor GGPP inhibited the increase in SmgGDS expression level by statins
